Data published in patent US10869931B2, “Polyethylene glycol-modified angiogenesis inhibitor HM-1 and application thereof” (NANJING ANJI BIOLOGICAL TECHNOLOGY CO.,LTD, priority 2016, dated 2020).
Marks after values point to notes of the source that are not given here. Where no end group is shown, it is not given here.

Key:
[1] = test system: Thyroid cancer tumor cells; assay: MTT proliferation inhibition, thyroid cancer cells; assay type: cell-based, human; design: concentration or dose not given beside the values; details: 48 h
How it was run: (§1)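 Tumour cells plated at 2×10^4 cells/mL, attached overnight, then exposed to dilutions of mPEG-HM-1 for 48 h at 37 °C, 5% CO2. MTT added 4 h, formazan dissolved in DMSO, absorbance 570/630 nm; growth inhibition = 1 − treated/untreated, three independent repeats, mean±SD.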

[2] = test system: Esophageal cancer tumor cells; assay: MTT proliferation inhibition, esophageal cancer cells; assay type: cell-based, human; design: concentration or dose not given beside the values; details: 48 h
How it was run: as §1

[3] = test system: Gastric cancer tumor cells; assay: MTT proliferation inhibition, gastric cancer cells; assay type: cell-based, human; design: concentration or dose not given beside the values; details: 48 h
How it was run: as §1

[4] = test system: Kidney cancer tumor cells; assay: MTT proliferation inhibition, kidney cancer cells; assay type: cell-based, human; design: concentration or dose not given beside the values; details: 48 h
How it was run: as §1

[5] = test system: Bladder Cancer tumor cells; assay: MTT proliferation inhibition, bladder cancer cells; assay type: cell-based, human; design: concentration or dose not given beside the values; details: 48 h
How it was run: as §1

[6] = test system: IL-1β production by mouse peritoneal macrophages; assay: IL-1β production by mouse peritoneal macrophages (ELISA); assay type: cell-based; details: 48 h
How it was run: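 Starch-elicited mouse peritoneal macrophages (2×10^6 cells/mL), adhered 3 h, treated with low, medium and high concentrations of mPEG-HM-1 for 48 h; dexamethasone as positive control. Supernatant IL-1β quantified by sandwich ELISA at OD450.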

[7] = test system: xylene-induced ear swelling in Kunming mice; assay: Xylene-induced ear swelling in mice; assay type: in vivo, mouse; details: for Swelling: 2 h after xylene; for Inhibition rate: ear swelling vs control
How it was run: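 Kunming mice were dosed once daily for 5 days (aspirin 200 mg/kg as positive control, saline as blank). One hour after the last dose, xylene was applied to the right ear, with the left ear as untreated reference. Ear punches were weighed 2 h later; swelling degree = right − left weight, rate = degree/left weight ×100%.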

[8] = test system: collagen induced arthritis (CIA) in DBA/1 mice; assay: Collagen-induced mouse arthritis (CIA) model; assay type: in vivo; details: for Joint swelling / Left and right paw swelling / Clinical score: CIA DBA/1 mice; for Clinical score: maximum score 16
[9] = test system: carrageenan-induced toe swelling in SD rats; assay: Carrageenan-induced acute toe swelling in rats; assay type: in vivo, rat; design: Swelling: unit not given here
Description: SD rats were divided into blank model group, dexamethasone-positive group (5 mg/kg) and mPEG-HM-1 test group. The drug was administered once a day, and the model group was given the same volume of normal saline for 3 days and fed normally. At the first hour after the last administration, 0.1 mL of 1% carrageenan was injected subcutaneously into the right hind paw of the rats to induce inflammation. The volume of the foot was measured at 1 h, 3 h, 5 h, and 7 h after inflammation. The degree of swelling of the foot was calculated according to the following formula: the degree of swelling of the foot (mL)=the volume of the foot after inflammation−the volume before inflammation. Record the number of milliliters of spilled liquid (method: use the ballpoint pen to circle as the measurement mark at the protruding point of the right joint, and then put the right hind foot of each mouse into the volume measuring device, so that the hind limb is exposed outside the cylinder, and the depth of the immersion was determined by coinciding the circle with the liquid surface. After the foot enters the liquid, the liquid level rises, and the volume of the overflow liquid is the volume of the right hind foot of the rat, and the normal volume of the right hind foot of each mouse is sequentially determined).

[10] = 40 mg/kg subcutaneous from day 30 of modeling
[11] = 80 mg/kg once a day for 3 days, 1 h after carrageenan
[12] = 80 mg/kg once a day for 3 days, 3 h after carrageenan
[13] = 80 mg/kg once a day for 3 days, 5 h after carrageenan
[14] = 80 mg/kg once a day for 3 days, 7 h after carrageenan
[15] = 160 mg/kg once daily for 5 days
[16] = 80 mg/kg subcutaneous from day 30 of modeling

Row | Substance | rate of growth inhibition [1] | rate of growth inhibition [2] | rate of growth inhibition [3] | rate of growth inhibition [4] | rate of growth inhibition [5] | IL-1β ([6]; 40 μg/mL) | Inhibition Rate of IL-1β production ([6]; 40 μg/mL) | IL-1β ([6]; 80 μg/mL) | Inhibition Rate of IL-1β production ([6]; 80 μg/mL) | Swelling ([7]; 40 mg/kg once daily for 5 days) | Inhibition rate ([7]; 40 mg/kg once daily for 5 days) | Swelling ([7]; 80 mg/kg once daily for 5 days) | Inhibition rate ([7]; 80 mg/kg once daily for 5 days) | Swelling [9, 11] | Swelling [9, 12] | Swelling [9, 13] | Swelling [9, 14] | other results
1 | mPEG2-NHS20k-Arg-Gly-Ala-Asp-Arg-Ala-Gly-Gly-Gly-Gly-Arg-Gly-Asp ({mPEG2‑NHS 20 kDa}-RGADRAGGGGRGD) [mPEG2-NHS20k-HM-1] | 43.68 ± 13.61% | 50.79 ± 14.37% | 60.90 ± 20.14% | 55.20 ± 15.43% | 49.79 ± 12.73% | 655.24 ± 18.59 pg/mL | 29.25% | 552.35 ± 10.50 pg/mL | 40.36% | 4.80 ± 0.29* mg | 22.37% | 3.96 ± 0.22** mg | 35.92% | 0.25 ± 0.11 | 0.32 ± 0.13 | 0.41 ± 0.11 | 0.34 ± 0.14 | IL-1β ([6]; 20 μg/mL): 759.06 ± 16.96 pg/mL; Inhibition Rate of IL-1β production ([6]; 20 μg/mL): 18.04%; Swelling ([7]; 20 mg/kg once daily for 5 days): 5.52 ± 0.16 mg; Inhibition rate ([7]; 20 mg/kg once daily for 5 days): 10.65%; Joint swelling [8, 10]: 0.72 ± 0.16 mm; Left and right paw swelling [8, 10]: 0.75 ± 0.12 mm; Clinical score [8, 10]: 8.67 ± 1.35; limbs score (in words) ([8]; CIA mice, subcutaneous, once every three days, vs model control group): significantly lower than that of the model control group; Swelling ([9]; 40 mg/kg once a day for 3 days, 1 h after carrageenan): 0.26 ± 0.15; Swelling ([9]; 40 mg/kg once a day for 3 days, 3 h after carrageenan): 0.34 ± 0.14; Swelling ([9]; 40 mg/kg once a day for 3 days, 5 h after carrageenan): 0.43 ± 0.17; Swelling ([9]; 40 mg/kg once a day for 3 days, 7 h after carrageenan): 0.36 ± 0.12
2 | mPEG2-NHS40k-Arg-Gly-Ala-Asp-Arg-Ala-Gly-Gly-Gly-Gly-Arg-Gly-Asp ({mPEG2‑NHS 40 kDa}-RGADRAGGGGRGD) [mPEG2-NHS40k-HM-1] | 45.19 ± 14.07% | 48.65 ± 12.64% | 56.39 ± 11.58% | 58.73 ± 14.31% | 45.60 ± 10.11% | 756.84 ± 15.32 pg/mL | 18.28% | 673.30 ± 16.71 pg/mL | 27.30% | 5.47 ± 0.12 mg | 11.52% | 4.83 ± 0.67* mg | 21.88% | 0.26 ± 0.12 | 0.32 ± 0.11 | 0.42 ± 0.14 | 0.35 ± 0.17 | IL-1β ([6]; 160 μg/mL): 568.00 ± 10.82 pg/mL; Inhibition Rate of IL-1β production ([6]; 160 μg/mL): 38.67%; Swelling [7, 15]: 4.19 ± 0.34** mg; Inhibition rate [7, 15]: 32.26%; Joint swelling [8, 16]: 0.76 ± 0.14 mm; Left and right paw swelling [8, 16]: 0.79 ± 0.15 mm; Clinical score [8, 16]: 8.98 ± 1.30; Swelling ([9]; 160 mg/kg once a day for 3 days, 1 h after carrageenan): 0.27 ± 0.10; Swelling ([9]; 160 mg/kg once a day for 3 days, 3 h after carrageenan): 0.35 ± 0.18; Swelling ([9]; 160 mg/kg once a day for 3 days, 5 h after carrageenan): 0.41 ± 0.13; Swelling ([9]; 160 mg/kg once a day for 3 days, 7 h after carrageenan): 0.34 ± 0.19
